In patent publication US20240254118A1, “PRMT5 INHIBITORS AND USES THEREOF” (Gilead Sciences, Inc., priority 2022, published 2024):

Legend:
[1] = tested on: SDMA signal (PRMT5 inhibition) in HCT116 MTAP-deleted cells; assay: Symmetric di-methyl arginine image-based high content screen assay (SDMA assay), HCT116 MTAP-deleted; type: cell-based; conditions: SDMA assay; for EC50: Homo sapiens, HCT-116, 72 h, 3 days of treatment, cell line not given, taken as HCT116 MTAP-deleted, read-out: EC50 (SDMA assay)
Method: Symmetric di-methyl arginine image-based high content screen assay (SDMA assay) was performed in HCT116 WT and HCT116 MTAP-deleted cell lines to measure Symmetric Di-methyl Arginine (SDMA) signal reduction after selective PRMT5 inhibition in the MTAP-deleted cells.
Briefly, the same compound plates were generated as mentioned in the previous section of Cell viability assay on Day −1.
On Day 3, the cells were fixed by adding 45 μl of 8% neutralized formalin solution to each well using EL460 liquid dispenser 5 μl cassette and the cells were incubated for 30 minutes at room temperature. The formalin solution was washed off with […] phosphate buffered saline (dPBS), the 0.1% Triton X-100 solution in dPBS was used to permeabilize the cells for 15 minutes at room temperature. The triton solution was aspirated, 50 μl of Odyssey Blocking buffer+0.05% Tween20 was added and the plate was incubated at room temperature for 30 minutes.
The blocking solution was removed, a 20 μl of SDMA antibody (Cell Signaling Technology, Cat no. 13222) diluted 1:500 in Odyssey Blocking buffer+0.05% Tween20 was added and the plate was incubated at 4° C. overnight. Next day, the primary SDME antibody solution was washed from each well three times with 0.05% Tween20 in dPBS (PBST).
A 30 μl of the secondary antibody, a Goat anti-Rabbit Alexa Fluor Plus 488 (Invitrogen, Cat no. PIA32731) was diluted 1:500 in Odyssey Blocking buffer+0.05% Tween20 and the plate was incubated for 1.5 hours in dark at room temperature. The secondary antibody solution was removed, 30 μl of 5 mg/ml DAPI solution diluted 1:2000 in dPBS was added and the plate was incubated for 30 minutes in dark at room temperature. The DAPI solution was aspirated and the wells were washed six times with dPBS.
The SDMA signal and DAPI signal per cell were counted using a Cellomics CX7 LZR instrument reading under 488 and 405 nm laser, respectively. The SDMA signal was quantified by mean average intensity per cell from Alexa Fluor Plus 488 after the cell was defined with DAPI.

[2] = tested on: HCT116 MTAP-deleted cells; assay: Cell viability assay (CellTiter-Glo, 7 days), HCT116 MTAP-deleted; conditions: Homo sapiens, HCT-116, 168 h
[3] = taken as HCT116 WT versus MTAP-deleted
[4] = taken as HCT116 WT vs MTAP-deleted

Compound: Cn1ncc2c(N)nc3ccc(C(=O)N(Cc4ccc(C(F)(F)F)cc4F)n4cnc5ccccc54)cc3c21 [Example 322, 4-amino-N-(1H-benzo[d]imidazol-1-yl)-N-(2-fluoro-4-(trifluoromethyl)benzyl)-1-methyl-1H-pyrazolo[4,3-c]quinoline-8-carboxamide]
- EC50 [1]: < 1 nM
- EC50 selectivity (SDMA assay) [1, 3]: 34
- CC50 [2]: < 100 nM

Compound: CC(=O)N(C)N(Cc1cc2ccc(Cl)cn2n1)C(=O)c1ccc2nc(N)c3cnn(C)c3c2c1 [Example 403, N′-acetyl-4-amino-N-((6-chloropyrazolo[1,5-a]pyridin-2-yl)methyl)-N′,1-dimethyl-1H-pyrazolo[4,3-c]quinoline-8-carbohydrazide]
- EC50 [1]: < 1 nM
- EC50 selectivity (SDMA assay) [1, 4]: 476
- CC50 [2]: < 100 nM

Compound: CC(=O)N(C)N(Cc1ccn(-c2ccc(F)cc2)n1)C(=O)c1ccc2nc(N)c3cnn(C)c3c2c1 [Example 432, N′-acetyl-4-amino-N-((1-(4-fluorophenyl)-1H-pyrazol-3-yl)methyl)-N′,1-dimethyl-1H-pyrazolo[4,3-c]quinoline-8-carbohydrazide]
- EC50 [1]: 1 to 5 nM
- EC50 selectivity (SDMA assay) [1, 4]: 297
- CC50 [2]: < 100 nM

Compound: CC(=O)N(C)N(Cc1sc2ccccc2c1Cl)C(=O)c1ccc2nc(N)c3cnn(C)c3c2c1 [Example 442, N′-acetyl-4-amino-N-((3-chlorobenzo[b]thiophen-2-yl)methyl)-N′,1-dimethyl-1H-pyrazolo[4,3-c]quinoline-8-carbohydrazide]
- EC50 [1]: < 1 nM
- EC50 selectivity (SDMA assay) [1, 4]: 163
- CC50 [2]: < 100 nM

Compound: CN(C(=O)c1ccncc1)N(Cc1ccc(C(F)(F)F)cn1)C(=O)c1ccc2nc(N)c3cnn(C)c3c2c1 [Example 113, 4-amino-N′,1-dimethyl-N′-(pyridine-4-carbonyl)-N-[[5-(trifluoromethyl)-2-pyridyl]methyl]pyrazolo[4,3-c]quinoline-8-carbohydrazide]
- EC50 [1]: 1 to 5 nM
- EC50 selectivity (SDMA assay) [1, 3]: 404
- CC50 [2]: 100 to 1000 nM

Compound: CC(=O)N(C)N(Cc1ccc(C(F)(F)F)c(F)c1F)C(=O)c1ccc2nc(N)c3cnn(C)c3c2c1 [Example 371, N′-acetyl-4-amino-N-(2,3-difluoro-4-(trifluoromethyl)benzyl)-N′,1-dimethyl-1H-pyrazolo[4,3-c]quinoline-8-carbohydrazide]
- CC50 [2]: < 100 nM

Compound: CC(=O)N(C)N(Cc1ccc(-c2ccn(C(F)(F)F)n2)nc1F)C(=O)c1ccc2nc(N)c3cnn(C)c3c2c1 [Example 346, N′-acetyl-4-amino-N-((2-fluoro-6-(1-(trifluoromethyl)-1H-pyrazol-3-yl)pyridin-3-yl)methyl)-N′,1-dimethyl-1H-pyrazolo[4,3-c]quinoline-8-carbohydrazide]
- CC50 [2]: < 100 nM

Compound: CC(=O)N(C)N(Cc1ccc(-c2cnn(C)c2)cc1F)C(=O)c1ccc2nc(N)c3cnn(C)c3c2c1 [Example 373, N′-acetyl-4-amino-N-[[2-fluoro-4-(1-methylpyrazol-4-yl)phenyl]methyl]-N′,1-dimethyl-pyrazolo[4,3-c]quinoline-8-carbohydrazide]
- CC50 [2]: < 100 nM

Compound: CC(=O)N(C)N(Cc1ccn(-c2c(F)cccc2F)n1)C(=O)c1ccc2nc(N)c3cnn(C)c3c2c1 [Example 441, N′-acetyl-4-amino-N-((1-(2,6-difluorophenyl)-1H-pyrazol-3-yl)methyl)-N′,1-dimethyl-1H-pyrazolo[4,3-c]quinoline-8-carbohydrazide]
- CC50 [2]: < 100 nM

Compound: CC(=O)N(C)N(Cc1c(F)cc2c(ccn2C)c1F)C(=O)c1ccc2nc(N)c3cnn(C)c3c2c1 [Example 411, N′-acetyl-4-amino-N-((4,6-difluoro-1-methyl-1H-indol-5-yl)methyl)-N′,1-dimethyl-1H-pyrazolo[4,3-c]quinoline-8-carbohydrazide]
- CC50 [2]: < 100 nM

Compound: CN(C(=O)C1CC1)N(Cc1ccc(-c2cncs2)cn1)C(=O)c1ccc2nc(N)c3cnn(C)c3c2c1 [Example 355, 4-amino-N′-(cyclopropanecarbonyl)-N′,1-dimethyl-N-((5-(thiazol-5-yl)pyridin-2-yl)methyl)-1H-pyrazolo[4,3-c]quinoline-8-carbohydrazide]
- CC50 [2]: < 100 nM

Compound: CC(=O)N(C)N(Cc1ccc(-c2cnn(C(F)(F)F)c2)cc1Cl)C(=O)c1ccc2nc(N)c3cnn(C)c3c2c1 [Example 377, N′-acetyl-4-amino-N-[[2-chloro-4-[1-(trifluoromethyl)pyrazol-4-yl]phenyl]methyl]-N′,1-dimethyl-pyrazolo[4,3-c]quinoline-8-carbohydrazide]
- CC50 [2]: < 100 nM

Compound: Cn1ncc2c(N)nc3ccc(C(=O)N(Cc4ccn(-c5ccccc5F)n4)NC(=O)C4CC4)cc3c21 [Example 434, 4-amino-N′-(cyclopropanecarbonyl)-N-((1-(2-fluorophenyl)-1H-pyrazol-3-yl)methyl)-1-methyl-1H-pyrazolo[4,3-c]quinoline-8-carbohydrazide]
- CC50 [2]: < 100 nM

Compound: CC(=O)N(C)N(Cc1nc2ccccc2n1C(F)F)C(=O)c1ccc2nc(N)c3cnn(C)c3c2c1 [Example 431, N′-acetyl-4-amino-N-((1-(difluoromethyl)-1H-benzo[d]imidazol-2-yl)methyl)-N′,1-dimethyl-1H-pyrazolo[4,3-c]quinoline-8-carbohydrazide]
- CC50 [2]: 100 to 1000 nM

Compound: CN(C(=O)C1CC1)N(Cc1ccc(-c2cnn(C(F)F)c2)cn1)C(=O)c1ccc2nc(N)c3cnn(C)c3c2c1 [Example 353, 4-amino-N′-(cyclopropanecarbonyl)-N-((5-(1-(difluoromethyl)-1H-pyrazol-4-yl)pyridin-2-yl)methyl)-N′,1-dimethyl-1H-pyrazolo[4,3-c]quinoline-8-carbohydrazide]
- CC50 [2]: < 100 nM

Compound: CC(=O)N(C)N(Cc1c(F)cc(-c2cnn(C3CC3)c2)cc1F)C(=O)c1ccc2nc(N)c3cnn(C)c3c2c1 [Example 381, N′-acetyl-4-amino-N-[[4-(1-cyclopropylpyrazol-4-yl)-2,6-difluoro-phenyl]methyl]-N′,1-dimethyl-pyrazolo[4,3-c]quinoline-8-carbohydrazide]
- CC50 [2]: < 100 nM

Compound: CN(C(=O)C1CC1)N(Cc1ccc2c(c1)OC(F)(F)O2)C(=O)c1cc2c(cc1F)nc(N)c1cnn(C)c12 [Example 282, 4-amino-N′-(cyclopropanecarbonyl)-N-((2,2-difluorobenzo[d][1,3]dioxol-5-yl)methyl)-7-fluoro-N′,1-dimethyl-1H-pyrazolo[4,3-c]quinoline-8-carbohydrazide]
- CC50 [2]: < 100 nM

Compound: CC(=O)N(C)N(Cc1cc(F)c(C(F)(F)F)cc1F)C(=O)c1ccc2nc(N)c3cnn(C)c3c2c1 [Example 368, N′-acetyl-4-amino-N-(2,5-difluoro-4-(trifluoromethyl)benzyl)-N′, 1-dimethyl-1H-pyrazolo[4,3-c]quinoline-8-carbohydrazide]
- CC50 [2]: < 100 nM

Compound: CN(C(=O)C1CC1)N(Cc1cc2cc(C(F)(F)F)ccn2n1)C(=O)c1ccc2nc(N)c3cnn(C)c3c2c1 [Example 404, 4-amino-N′-(cyclopropanecarbonyl)-N′,1-dimethyl-N-((5-(trifluoromethyl)pyrazolo[1,5-a]pyridin-2-yl)methyl)-1H-pyrazolo[4,3-c]quinoline-8-carbohydrazide]
- CC50 [2]: < 100 nM

Compound: CN(C(=O)C1CC1)N(Cc1ccc(OC(F)F)cc1F)C(=O)c1ccc2nc(N)c3cnn(C)c3c2c1 [Example 317, 4-amino-N′-(cyclopropanecarbonyl)-N-(4-(difluoromethoxy)-2-fluorobenzyl)-N′,1-dimethyl-1H-pyrazolo[4,3-c]quinoline-8-carbohydrazide]
- CC50 [2]: < 100 nM
